How the values were obtained:
WT and A53T mice = test: In vivo fecal pellet output test; design: species or system mouse; settings: for FPO in the first 15 min: Day 5 vs Day 0
Experimental: In vivo fecal pellet output: Mice were subjected to the FPO test 1 day prior to the start of dosing with squalamine or vehicle (sterile water) (day 0). Mice were fasted for one hour and then given access to food one hour before FPO testing. On days 1-5 mice were fasted for one hour prior to oral gavage with vehicle or 20, 40, 80, or 120mg/kg squalamine. Oral gavage occurred between 10:00 to 11:00 am daily. On day 5, the FPO test was performed 1 hour after the final dose was administered. Total number of stool pellets produced in the first 15 min and over a 60 min period was measured in each group. Stool water content was measured by comparing wet and dry weights of the stool.

[1] = system: patients with PD and constipation; test: Phase 2 trial Stage 2: daily oral dosing, bowel function / stool related indices; type: in vivo, human
Experimental: Following successful screening, all subjects underwent a 14-day run-in period where the degree of constipation was assessed through a validated daily log (Zinsmeister et al. 2013) establishing baseline CSBMs/week. Subjects with an average of <3 CSBMs/week proceeded to dosing.
In Stage 2, 34 patients were evaluated.
The primary efficacy outcome variable was whether or not a subject was a “success” or “failure”. This is an endpoint based on subject diary entries for the “fixed dose” period prior to the endpoint assessment defined as average complete stool frequency increase by 1 or more over baseline, or 3 or more complete spontaneous stools/week. The subject was deemed a “success” if s/he met one or more of the criteria listed above, otherwise the subject was deemed a “failure”. The primary analysis was based on all subjects with a baseline assessment and an assessment at the end of the “fixed-dose” period and was a comparison of the proportion of successes with 0.10 (the null hypothesis corresponding to no treatment effect).

[2] = system: patients with PD and constipation; test: Phase 2 trial: safety and adverse event profile; type: in vivo, human
Experimental: Each dose period was staggered, so that subjects 1-2 were administered a single dose of the drug at the lowest dose of 25 mg. Once 24 hours have elapsed, and provided there are no safety concerns, the patient was sent home and brought back on day 4-8 for the next dose. During the days the subjects are home, they completed the daily diaries and e-mailed them to the study coordinators. Subjects 3-10 were dosed after the first 2 subjects have been observed for 72 hours, i.e. on Day 4. Subjects 1-2 were also brought back on Day 4-8 and administered a single dose of 50 mg. Once another 24 hours have elapsed and provided there are no safety concerns, the patients were all sent home and instructed to return on Day 7 for the next dosing level. This single dosing regimen was continued until each subject was administered a single dose of 200 mg or has reached a dose limiting toxicity (DLT). DLT was the dose which induces repeated vomiting, diarrhea, abdominal pain or symptomatic postural hypotension within 24 hours of dosing.
Adverse events were coded using the current version of MedDRA. Severity of AEs were assessed by investigators according to CTCAE (v4.03): Grade 1 is labeled as Mild, Grade 2 as Moderate, and Grade 3 and above as Severe. […] The number (percentage) of subjects who experienced an AE during escalation and fixed dosing periods were summarized by dose level and overall for each stage. The denominator for calculating the percentages were based on the number of subjects ever exposed to each dose and overall.

Solubility in water = type: physicochemical; settings: pH<3.5 (the pH of gastric fluid)
[3] = Preclinical oral studies in rats; type: in vivo
[4] = system: colon segments (propagating contractile clusters); test: Ex vivo colon motility (PCCs), Swiss Webster, C57BL/6 and CD-1 mice; design: species or system mouse; settings: for increase in colonic PCC velocity / colonic PCC velocity: intraluminal 10-30 μM; for colonic PCC velocity: mean±SEM
Experimental: Ex vivo colon motility: For the ex vivo colonic motility experiments, the colon was excised and placed within an organ-bath perfusion chamber filled with warmed, oxygenated Krebs buffer or physiological saline (35° C., 95% O2, 5% CO2). The colon was flushed and cannulated at the oral and anal ends to a manifold and syringe to allow inflow of oxygenated Krebs buffer (or physiological saline) or Krebs and squalamine and to maintain intraluminal pressure. The height of the inflow tube at baseline measurements was parallel to the height of the colon in the organ bath (1.1 cm). Mechanical threshold defined an inflow pressure great enough to generate a contraction in under 30 sec (1.8 cm). Recordings in the first portion of the study were measured at a mechanical threshold causing a pressure differential of 2 hPa (cm H2O). Inflow was raised 2-3 hPa above baseline and outflow was raised a minimum of 0.2 hPa above inflow. Motor patterns were recorded using a Microsoft LifeCam 3000 web camera or a Logitech Quickcam Pro camera positioned 7-8 cm above the tissue. Videos were recorded during a 20-minute Krebs control and a 20-minute Krebs +squalamine period in which solutions were added to the inflow syringe.
Spatiotemporal Maps: Video recordings were used to construct spatiotemporal maps (STmaps) using edge detection software. STmaps are presented as heat maps showing the oral to anal direction across the y-axis and time across the x-axis (FIGS. 9A-C). Color corresponds to the changing diameter of the colon during periods of relaxation (green-yellow) and contraction (red) as contractile motor patterns occurred. ENS-dependent PCCs were defined as broad bands directed from the oral to anal ends that spanned more than 50% of the colon length. Parameters of motor patterns including, velocity, amplitude, and frequency were measured using ImageJ and Matlab (Version 12) software.
Statistical Analysis: Effects of squalamine on motility and IPAN excitability in WT and PD model mice were assessed in paired experiments following Krebs control and subsequent squalamine exposure. Unpaired comparisons were performed for experiments comparing PD control and PD model strains. Percent difference was calculated by (treatment-control)/control. Data are presented as mean±SEM. Ex vivo statistical comparisons were performed using paired or unpaired, two-tailed t-tests or 1-way ANOVA using Graphpad Prism software (Version 7.0). In vivo studies were analysed using 1-way and 2-way ANOVA. Statistical significance was determined when p <0.05.

C. elegans model of PD = settings: cited from earlier work
[5] = C57BL/6 mice, vs Krebs control (P=0.27)

**Q.** For CC(C)[C@@H](CC[C@@H](C)[C@H]1CC[C@H]2[C@@H]3[C@H](O)C[C@H]4C[C@@H](NCCCNCCCCN)CC[C@]4(C)[C@H]3CC[C@]12C)OS(=O)(=O)O (single isomer, unassigned) [squalamine (ENT-01), squalamine], which “FPO in the first 15 min” value (WT and A53T mice; A53T mice, 20, 40 and 80 mg/kg oral gavage for 5 days) is on record?
**A.** Its value is “significantly increased”.

**Q.** And the fecal water content (WT and A53T mice; A53T mice, 80 and 120 mg/kg oral)?
**A.** The fecal water content was “significantly increased”.

**Q.** And the fecal water content (WT and A53T mice; WT mice, 80 mg/kg oral)?
**A.** Its fecal water content is “significantly increased”.

**Q.** And the “FPO in the first 15 min” value (WT and A53T mice; WT mice, 40 and 120 mg/kg oral gavage for 5 days)?
**A.** Its value is “significantly increased”.

**Q.** And the CSBM ([1]; Stage 2, wash-out, mean (SD), baseline 1.2 (0.90))?
**A.** The CSBM was 1.8 (1.19).

**Q.** And the SBM ([1]; Stage 2, wash-out, mean (SD), baseline 2.6 (1.45))?
**A.** Its SBM is 3.2 (1.80).

**Q.** What about the “response rate (CSBM within 24 hours on at least 2 of 3 days)” value ([1]; Stage 2 daily dosing, 75 mg) of the same compound?
**A.** Its value is 26%.

**Q.** And the “decrease in use of rescue medication” value ([1]; fixed dose vs baseline)?
**A.** The value was 83%.

**Q.** What about the “improvement in SBM” value ([1]; fixed dose vs baseline) of the same compound?
**A.** The value was 73%.

**Q.** And the “improvement in consistency (Bristol stool scale)” value ([1]; fixed dose vs baseline)?
**A.** Its value is 52%.

**Q.** What about the “improvement in ease of passage” value ([1]; fixed dose vs baseline) of the same compound?
**A.** The value was 16%.

**Q.** What about the “Diarrhea, patients” value ([2]; Stage 1, 4/10) of the same compound?
**A.** The value was 40%.

**Q.** What about the “nausea, patients” value ([2]; Stage 1, 4/10) of the same compound?
**A.** The value was 40%.

**Q.** And the “Diarrhea, patients” value ([2]; Stage 2, 15/34)?
**A.** The value was 44%.

**Q.** What about the “nausea, patients” value ([2]; Stage 2, 18/34) of the same compound?
**A.** The value was 52.9%.

**Q.** What about the “worsening of hemorrhoids, patients” value ([2]; both stages, 1/44) of the same compound?
**A.** Its value is 2.2%.

**Q.** And the “worsening of acid reflux, patients” value ([2]; both stages, 2/44)?
**A.** Its value is 4.5%.

**Q.** And the “flatulence, patients” value ([2]; both stages, 3/44)?
**A.** The value was 6.8%.

**Q.** What about the “vomiting, patients” value ([2]; both stages, 3/44) of the same compound?
**A.** The value was 6.8%.

**Q.** What about the “dizziness, patients” value ([2]; both stages, 8/44) of the same compound?
**A.** The value was 18%.

**Q.** And the “abdominal pain, patients” value ([2]; both stages, 11/44)?
**A.** Its value is 32%.

**Q.** What about the solubility in water (Solubility in water) of the same compound?
**A.** Its solubility in water is “readily dissolves”.

**Q.** And the tolerability ([3]; oral)?
**A.** Its tolerability is “well tolerated”.

**Q.** And the oral bioavailability ([3]; preclinical studies)?
**A.** The oral bioavailability was “about 0.1%”.

**Q.** What about the “increase in colonic PCC velocity” value ([4]; C57BL/6 mice, vs Krebs control) of the same compound?
**A.** The value was 38%.

**Q.** And the “colonic PCC velocity” value ([4]; C57BL/6 mice, Krebs control 1.31±0.10)?
**A.** Its value is 1.80±0.20 mm/s.

**Q.** And the “increase in PCC amplitude” value [4, 5]?
**A.** Its value is 1%.

**Q.** What about the “increase in PCC frequency” value [4, 5] of the same compound?
**A.** Its value is 51%.

**Q.** And the PCC frequency ([4]; C57BL/6 mice, Krebs control 0.007±0.001)?
**A.** Its PCC frequency is 0.010 ±0.003 Hz.

**Q.** What about the PCC amplitude ([4]; C57BL/6 mice, Krebs control 0.66±0.06) of the same compound?
**A.** Its PCC amplitude is 0.70±0.07 cm.

**Q.** What about the “increase in colonic PCC velocity” value ([4]; CD-1 mice, vs Krebs control) of the same compound?
**A.** The value was 81%.

**Q.** What about the “colonic PCC velocity” value ([4]; CD-1 mice, Krebs control 0.96±0.1) of the same compound?
**A.** Its value is 1.74±0.1 mm/s.

**Q.** What about the “increase in PCC frequency” value ([4]; CD-1 mice, vs Krebs control (P=0.06)) of the same compound?
**A.** The value was 63%.

**Q.** And the “increase in PCC amplitude” value ([4]; CD-1 mice, vs Krebs control (P=0.56))?
**A.** Its value is 12%.

**Q.** And the PCC frequency ([4]; CD-1 mice, Krebs control 0.0099±0.0014)?
**A.** The PCC frequency was 0.0162±0.0026 Hz.

**Q.** What about the PCC amplitude ([4]; CD-1 mice, Krebs control 0.64±0.19) of the same compound?
**A.** Its PCC amplitude is 0.71±0.19 cm.

**Q.** What about the “increase in colonic PCC velocity” value ([4]; Swiss Webster mice, 20 min, vs Krebs control) of the same compound?
**A.** Its value is 45%.

**Q.** What about the “colonic PCC velocity” value ([4]; Swiss Webster mice, Krebs control 1.14±0.10) of the same compound?
**A.** Its value is 1.66±0.10 mm/s.

**Q.** And the “increase in PCC frequency” value ([4]; Swiss Webster mice, vs Krebs control)?
**A.** The value was 35%.

**Q.** What about the “decrease in PCC amplitude” value ([4]; Swiss Webster mice, vs Krebs control (P=0.65)) of the same compound?
**A.** Its value is 3%.

**Q.** What about the PCC frequency ([4]; Swiss Webster mice, Krebs control 0.009±0.001) of the same compound?
**A.** Its PCC frequency is 0.012±0.001 Hz.

**Q.** And the PCC amplitude ([4]; Swiss Webster mice, Krebs control 0.62±0.05)?
**A.** The PCC amplitude was 0.61±0.05 cm.

**Q.** And the muscle paralysis (C. elegans model of PD; C. elegans model of PD (Perni et al. 2017))?
**A.** Its muscle paralysis is “complete reversal of muscle paralysis”.

**Q.** What about the “formation of aggregates of αS” value (C. elegans model of PD; C. elegans model of PD in vivo (Perni et al. 2017)) of the same compound?
**A.** Its value is “inhibit the formation of aggregates of αS”.
